Literature values, collected in patent US9078864B2, “Agonists for antimicrobial peptide systems” (priority 2008, dated 2015).

System: shigellosis
Settings: patients with shigellosis; unit not given; cited from earlier work

CC(C)(C)C(=O)OCOC(=O)[C@@H]1N2C(=O)[C@@H](/N=C/N3CCCCCC3)[C@H]2SC1(C)C [pivmecillinam]
duration of diarrhoea (mean±SD): 3.2±1.8
